Key:
AKT = assay: Anti-phosphorylated AKT / anti-AKT probing of HLE cell lysates; format: cell-based; conditions: HLE cells transfected with PIK3CD siRNA
Excerpt: Anti-ARL4C and anti-PIK3CD antibodies were purchased from Abcam (Cambridge, UK) and Santa Cruz Biotechnology (Santa Cruz, CA, USA), respectively. Anti-phosphorylated AKT (S473) antibody, anti-AKT antibody, anti-Ki-67 antibody, and anti-YAP/TAZ were purchased from Cell Signaling Technology (Beverly, MA, USA). PD184161 (MEK1/2 inhibitor) and VivoGlo luciferin were purchased from Sigma-Aldrich (Steinheim, Germany) and Promega (Madison, WI, USA), respectively.
(§1) HLE cells were transfected with control siRNA and PIK3CD siRNA (siRNA against PIK3CD) at 20 nM, and a proliferation assay was performed; the results are shown in (e) of FIG. 5. In addition, an anti-phosphorylated AKT antibody and an anti-AKT antibody as probes were caused to act on cell lysates of HLE cells transfected with control siRNA and PIK3CD siRNA; the results are shown in FIG. 5 (f). HLE cells were transfected with control siRNA and PIK3CD siRNA (siRNA against PIK3CD) at 20 nM and the PIK3CD mRNA amount was measured by real-time PCR; the results are shown in (c) of FIG. 7.

HLE cells = assay: Cell proliferation assay (CyQUANT NF) in HLE cells; format: cell-based; conditions: HLE cells transfected with siRNA at 20 nM
Experimental: HLE cells, HCT116 cells, and A549 cells were transfected with 25 to 50 nM ASO and 10 to 20 nM siRNA using Lipofectamine 3000 (Invitrogen, Carlsbad, CA, USA) or RNAiMAX (Invitrogen). Transfected cells were used in the experiments 36 to 48 hours after the end of the transfection.
The cell proliferation assays were performed using the CyQUANT NF Cell Proliferation Assay Kits (Thermo Fisher Scientific), in the way recommended by the manufacturer.
HLE cells were transfected with control ASO, ASO-1316 and ASO-3223 at 25 nM and a proliferation assay was performed; the results of the assay are shown in (e) of FIG. 4.
as §1

PIK3CD siRNA: siRNA against PIK3CD, Table 3, SEQ ID NO: 102 and 103 (chain 1 GCGAATACTCTGCCATTAT; chain 2 GCCAACTAACTCTGCAGAT; two separate siRNAs, only sense strands listed, further chemistry not given here) [reference compound]
AKT activity (pAKT S473) (AKT): reduced AKT activity
cell proliferation (HLE cells): suppressed cell proliferation
